# Measurements taken from patent US6521644B1, “Compositions for promoting growth” (Ferring BV, priority 1999, dated 2003).
# Tested on: GH surge induced by GHRH
# Assay: Effect on circulating growth hormone: GH surge induced by i.v. GHRH in rats, plasma GH by RIA
# Assay type: in vivo, male Sprague-Dawley rats
# Experimental: Experiments were conducted in male Sprague-Dawley rats (200-220 g) obtained from lffa Credo (L'Arbresle, France), fed with standard laboratory chow ad libitum and kept on a 12 h light-dark in a temperature- and humidity-controlled room.
# Rats were weighed and anesthetized with Narcorene. The ventral side of the throat was shaved and an incision was made down the center of the throat. The right jugular vein was exposed and cannulated using a polythene tubing (OD 1.0 mm) connected to a medical grade silicone tubing (OD 0.94 mm) (silicone side in the jugular vein). The tubing was secured and the polythene side was externalized through an incision made on the dorsal side of the neck. The catheter was rinsed with 300 μL of a Ringer solution containing 0.1% heparin. Rats were allowed to recover for at least 24 hours in individual cages with food and water available ad libitum.
# The compound of Example 1B (3 mg/kg, i.v.) or its vehicle was injected 15 minutes before an injection of GHRH (0.1 μg/kg, i.v.). Blood samples (200-250 μL) were removed immediately before inhibitor and GHRH injections, and then 5, 10, 15, 20, 30 and 60 min post-GHRH. Each blood sample was replaced with an equivalent volume of a Ringer solution containing 0.1% heparin. Plasma was extracted and stored at −20° C. until determinations of GH by RIA.
structure (smiles),measurement,setting,value
"CC(C)(C)[C@H](N)C(=O)N1CCC[C@H]1C#N [Example 1B, (2S)-N-((2′S)-2′-amino-3′,3′-dimethylbutanoyl)pyrrolidine-2-carbonitrile]",Effect on the GH surge induced by the administration of GHRH,"3 mg/kg i.v. 15 min before GHRH 0.1 μg/kg i.v., rats",potentiated the GH surge
same,"mean GH, Time 5 min","5 min post-GHRH 0.1 μg/kg i.v., inhibitor 3 mg/kg i.v. 15 min before GHRH, mean of 6 rats ± s.e.m.",483.0 ± 91.0 ng/mL
same,"mean GH, Time 10 min","10 min post-GHRH 0.1 μg/kg i.v., inhibitor 3 mg/kg i.v. 15 min before GHRH, mean of 6 rats ± s.e.m.",309.5 ± 55.40 ng/mL
same,"mean GH, Time 0 min","15 min after inhibitor 3 mg/kg i.v., immediately before GHRH 0.1 μg/kg i.v., mean of 6 rats ± s.e.m.",33.4 ± 6.9 ng/mL
same,"mean GH, Time 15 min","15 min post-GHRH 0.1 μg/kg i.v., inhibitor 3 mg/kg i.v. 15 min before GHRH, mean of 6 rats ± s.e.m.",164.3 ± 28.3 ng/mL
same,"mean GH, Time 20 min","20 min post-GHRH 0.1 μg/kg i.v., inhibitor 3 mg/kg i.v. 15 min before GHRH, mean of 6 rats ± s.e.m.",103.1 ± 18.1 ng/mL
same,"mean GH, Time 30 min","30 min post-GHRH 0.1 μg/kg i.v., inhibitor 3 mg/kg i.v. 15 min before GHRH, mean of 6 rats ± s.e.m.",52.1 ± 7.7 ng/mL
same,"mean GH, Time 60 min","60 min post-GHRH 0.1 μg/kg i.v., inhibitor 3 mg/kg i.v. 15 min before GHRH, mean of 6 rats ± s.e.m.",26.3 ± 3.3 ng/mL
same,GH AUC,"AUC column of Table 1, inhibitor 3 mg/kg i.v. 15 min before GHRH 0.1 μg/kg i.v., 6 rats, ± s.e.m.",5070 ± 837 ng·min/mL
same,Integrated GH response,"inhibitor-treated group, 3 mg/kg i.v. 15 min before GHRH 0.1 μg/kg i.v., p<0.05 vs vehicle (720.2±217.0)",5072.8±837.3 ng/ml.60 min
same,"mean GH, Time -15 min","plasma GH immediately before inhibitor injection (3 mg/kg i.v.), mean of 6 rats ± s.e.m.",50.5 ± 16.4 ng/mL
